Experimental findings from patent US10844057B2, “Process for preparing JAK inhibitors and intermediates thereof” (priority 2018, dated 2020) are described below.

One assay addresses JAK1 (Homo sapiens (Human), UniProt P23458). In words: Biochemical JAK kinase assay (LanthaScreen), JAK1. The following applies: converted from pIC50 using Cheng-Prusoff; ATP 25 μM. The protocol: (§1) Assay 1: Biochemical JAK Kinase Assays
(§2) A panel of four LanthaScreen JAK biochemical assays (JAK1, 2, 3 and Tyk2) were carried in a common kinase reaction buffer (50 mM HEPES, pH 7.5, 0.01% Brij-35, 10 mM MgCl2, and 1 mM EGTA). Recombinant GST-tagged JAK enzymes and a GFP-tagged STAT1 peptide substrate were obtained from Life Technologies.
(§3) Serially diluted compounds were pre-incubated with each of the four JAK enzymes and the substrate in white 384-well microplates (Corning) at ambient temperature for 1 h. ATP was subsequently added to initiate the kinase reactions in 10 μL total volume, with 1% DMSO. […] Kinase reactions were allowed to proceed for 1 hour at ambient temperature before a 10 μL preparation of EDTA (10 mM final concentration) and Tb-anti-pSTAT1 (pTyr701) antibody (Life Technologies, 2 nM final concentration) in TR-FRET dilution buffer (Life Technologies) was added. The plates were allowed to incubate at ambient temperature for 1 h before being read on the EnVision reader (Perkin Elmer). Emission ratio signals (520 nm/495 nm) were recorded and utilized to calculate the percent inhibition values based on DMSO and background controls.
(§4) For dose-response analysis, percent inhibition data were plotted vs. compound concentrations, and IC50 values were determined from a 4-parameter robust fit model with the Prism software (GraphPad Software). Results were expressed as pIC50 (negative logarithm of IC50) and subsequently converted to pKi (negative logarithm of dissociation constant, Ki) using the Cheng-Prusoff equation.

In another assay the target is JAK2 (Homo sapiens (Human), UniProt O60674). As to the kind of experiment: Biochemical JAK kinase assay (LanthaScreen), JAK2. The note with it: converted from pIC50 using Cheng-Prusoff; ATP 3 μM. Here is the method:
as §1, §2, §3, §4

In another assay the target is JAK3 (Homo sapiens (Human), UniProt P52333). In words: Biochemical JAK kinase assay (LanthaScreen), JAK3. The note with it: converted from pIC50 using Cheng-Prusoff; ATP 1.6 μM. Here is the method:
as §1, §2, §3, §4

Assay [1] deals with IL-2 stimulated STAT5 phosphorylation in Tall-1 human T cell line. As to the kind of experiment: Inhibition of IL-2 stimulated pSTAT5 in Tall-1 T cells. Type of assay: cell-based. The following applies: IL-2 300 ng/mL, pSTAT5 AlphaLisa, Tall-1 cells, read-out: Tall-1 pIC50 (converted). The protocol:
Assay 2: Inhibition of IL-2 Stimulated pSTAT5 in Tall-1 T Cells
The potency of test compounds for inhibition of interleukin-2 (IL-2) stimulated STAT5 phosphorylation was measured in the Tall-1 human T cell line (DSMZ) using AlphaLisa.
Phosphorylated STAT5 was measured via the AlphaLISA SureFire Ultra pSTAT5 (Tyr694/699) kit (PerkinElmer).
Compounds were serially diluted in DMSO and dispensed acoustically to empty wells. Assay media (phenol red-free DMEM (Life Technologies) supplemented with 10% FBS (ATCC)) was dispensed (4 μL/well) and plates shaken at 900 rpm for 10 mins. Cells were seeded at 45,000 cells/well in assay media (4 μL/well), and incubated at 37° C., 5% CO2 for 1 hour, followed by the addition of IL-2 (R&D Systems; final concentration 300 ng/mL) in pre-warmed assay media (4 μL) for 30 minutes. […] The lysate was shaken at 900 rpm for 10 minutes at room temperature (RT). Phosphorylated STAT5 was measured via the pSTAT5 AlphaLisa kit (PerkinElmer). Freshly prepared acceptor bead mixture was dispensed onto lysate (5 μL) under green filtered <100 lux light. Plates were shaken at 900 rpm for 2 mins, briefly spun down, and incubated for 2 hrs at RT in the dark. Donor beads were dispensed (5 μL) under green filtered <100 lux light. Plates were shaken at 900 rpm for 2 minutes, briefly spun down, and incubated overnight at RT in the dark. Luminescence was measured with excitation at 689 nm and emission at 570 nm using an EnVision plate reader (PerkinElmer) under green filtered <100 lux light.
To determine the inhibitory potency of test compounds in response to IL-2, the average emission intensity of beads bound to pSTAT5 was measured in a human T cell line. IC50 values were determined from analysis of the inhibition curves of signal intensity versus compound concentration. Data are expressed as pIC50 (negative decadic logarithm IC50) values (mean±standard deviation).

The structures appear in SMILES notation.

Sequence of JAK3 (P52333 whole entry): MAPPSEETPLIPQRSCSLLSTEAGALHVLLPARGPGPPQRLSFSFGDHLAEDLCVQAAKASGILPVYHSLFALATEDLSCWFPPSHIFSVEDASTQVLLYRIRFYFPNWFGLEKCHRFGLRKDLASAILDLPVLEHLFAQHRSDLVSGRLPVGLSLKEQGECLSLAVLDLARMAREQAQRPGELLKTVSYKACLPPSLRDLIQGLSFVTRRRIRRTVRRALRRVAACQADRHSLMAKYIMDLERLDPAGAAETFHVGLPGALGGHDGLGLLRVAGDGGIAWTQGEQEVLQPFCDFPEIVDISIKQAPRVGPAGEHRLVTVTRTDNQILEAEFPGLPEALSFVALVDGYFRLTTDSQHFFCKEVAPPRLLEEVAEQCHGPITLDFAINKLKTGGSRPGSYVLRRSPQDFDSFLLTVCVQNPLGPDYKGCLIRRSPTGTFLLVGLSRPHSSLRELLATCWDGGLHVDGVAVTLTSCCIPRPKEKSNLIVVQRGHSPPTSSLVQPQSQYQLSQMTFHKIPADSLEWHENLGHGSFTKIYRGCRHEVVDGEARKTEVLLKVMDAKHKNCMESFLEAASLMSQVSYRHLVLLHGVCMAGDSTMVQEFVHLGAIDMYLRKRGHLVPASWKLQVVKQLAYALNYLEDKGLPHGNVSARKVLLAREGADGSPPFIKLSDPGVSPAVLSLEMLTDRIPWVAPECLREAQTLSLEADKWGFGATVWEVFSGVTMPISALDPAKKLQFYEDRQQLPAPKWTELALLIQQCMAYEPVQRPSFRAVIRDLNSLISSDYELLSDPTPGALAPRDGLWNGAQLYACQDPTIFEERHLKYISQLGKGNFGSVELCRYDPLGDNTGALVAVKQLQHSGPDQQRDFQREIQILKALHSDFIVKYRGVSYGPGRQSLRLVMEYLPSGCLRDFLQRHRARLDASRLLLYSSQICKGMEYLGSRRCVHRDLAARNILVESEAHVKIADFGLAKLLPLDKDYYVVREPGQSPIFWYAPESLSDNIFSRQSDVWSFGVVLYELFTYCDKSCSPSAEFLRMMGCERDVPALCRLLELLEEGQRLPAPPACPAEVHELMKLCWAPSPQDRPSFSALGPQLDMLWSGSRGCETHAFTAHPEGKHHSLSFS
Sequence of JAK2 (O60674 whole entry): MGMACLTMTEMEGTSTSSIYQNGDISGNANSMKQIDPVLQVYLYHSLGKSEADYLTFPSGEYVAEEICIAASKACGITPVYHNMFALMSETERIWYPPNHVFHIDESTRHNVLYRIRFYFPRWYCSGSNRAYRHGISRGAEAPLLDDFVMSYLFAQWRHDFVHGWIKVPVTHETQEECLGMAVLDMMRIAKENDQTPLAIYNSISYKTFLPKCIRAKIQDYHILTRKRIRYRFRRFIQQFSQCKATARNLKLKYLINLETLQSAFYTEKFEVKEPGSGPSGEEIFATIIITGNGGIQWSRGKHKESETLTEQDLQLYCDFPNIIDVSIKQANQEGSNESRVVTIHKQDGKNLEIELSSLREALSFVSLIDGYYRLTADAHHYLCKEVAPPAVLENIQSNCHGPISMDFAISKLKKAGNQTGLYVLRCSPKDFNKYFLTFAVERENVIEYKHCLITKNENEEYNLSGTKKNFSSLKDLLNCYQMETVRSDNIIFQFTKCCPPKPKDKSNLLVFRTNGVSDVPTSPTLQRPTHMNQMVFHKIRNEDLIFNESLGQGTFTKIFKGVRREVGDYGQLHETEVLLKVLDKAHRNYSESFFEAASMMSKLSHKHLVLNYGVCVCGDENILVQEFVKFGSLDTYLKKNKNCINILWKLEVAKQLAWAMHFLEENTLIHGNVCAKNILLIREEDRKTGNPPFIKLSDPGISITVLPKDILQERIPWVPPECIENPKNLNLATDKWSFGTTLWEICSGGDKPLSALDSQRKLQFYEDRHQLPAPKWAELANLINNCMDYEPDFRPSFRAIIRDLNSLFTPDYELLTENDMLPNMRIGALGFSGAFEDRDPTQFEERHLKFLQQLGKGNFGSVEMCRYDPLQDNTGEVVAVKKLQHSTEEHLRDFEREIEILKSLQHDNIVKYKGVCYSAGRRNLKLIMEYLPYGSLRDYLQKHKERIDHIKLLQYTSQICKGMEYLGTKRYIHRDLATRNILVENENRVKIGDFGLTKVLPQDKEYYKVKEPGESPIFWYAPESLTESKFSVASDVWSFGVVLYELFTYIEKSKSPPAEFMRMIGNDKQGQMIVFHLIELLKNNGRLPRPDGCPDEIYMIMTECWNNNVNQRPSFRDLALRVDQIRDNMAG
Sequence of JAK1 (P23458 whole entry): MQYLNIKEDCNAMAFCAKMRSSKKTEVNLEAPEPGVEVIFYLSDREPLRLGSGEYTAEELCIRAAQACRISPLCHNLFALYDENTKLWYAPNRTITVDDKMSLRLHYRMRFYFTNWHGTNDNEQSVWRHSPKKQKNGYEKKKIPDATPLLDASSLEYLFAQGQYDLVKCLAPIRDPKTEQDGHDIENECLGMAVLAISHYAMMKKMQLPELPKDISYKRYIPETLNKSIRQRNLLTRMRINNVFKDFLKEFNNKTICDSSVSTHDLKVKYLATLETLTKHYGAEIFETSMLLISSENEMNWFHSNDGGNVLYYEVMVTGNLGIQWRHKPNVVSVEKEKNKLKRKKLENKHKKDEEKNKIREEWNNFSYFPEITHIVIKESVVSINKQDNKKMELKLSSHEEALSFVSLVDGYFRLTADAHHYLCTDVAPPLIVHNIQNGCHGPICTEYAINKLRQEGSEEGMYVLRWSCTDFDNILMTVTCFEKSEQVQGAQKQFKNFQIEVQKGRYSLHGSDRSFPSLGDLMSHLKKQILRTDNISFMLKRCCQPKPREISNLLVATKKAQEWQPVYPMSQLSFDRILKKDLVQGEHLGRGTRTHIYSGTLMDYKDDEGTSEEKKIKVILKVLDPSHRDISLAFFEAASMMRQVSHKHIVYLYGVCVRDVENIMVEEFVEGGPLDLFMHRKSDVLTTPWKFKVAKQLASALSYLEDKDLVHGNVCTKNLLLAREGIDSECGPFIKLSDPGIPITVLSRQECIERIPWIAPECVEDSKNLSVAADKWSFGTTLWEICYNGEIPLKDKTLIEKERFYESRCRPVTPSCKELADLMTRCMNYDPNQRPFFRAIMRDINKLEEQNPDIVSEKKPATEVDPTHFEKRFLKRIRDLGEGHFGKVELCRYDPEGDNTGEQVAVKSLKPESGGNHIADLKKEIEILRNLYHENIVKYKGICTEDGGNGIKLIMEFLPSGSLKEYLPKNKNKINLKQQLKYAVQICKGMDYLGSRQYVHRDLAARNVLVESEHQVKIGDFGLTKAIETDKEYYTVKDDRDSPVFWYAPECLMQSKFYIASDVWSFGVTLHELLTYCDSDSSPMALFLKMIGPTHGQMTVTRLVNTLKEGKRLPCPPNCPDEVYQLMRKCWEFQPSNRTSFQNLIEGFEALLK

As for `CCc1cc(O)c(F)cc1-c1ccc2c(-c3nc4c([nH]3)CN(C(C)C)[C@H](C(=O)N3CC(N(C)C)C3)C4)n[nH]c2c1` [Example 8, (S)-(3-(dimethylamino)azetidin-1-yl)(2-(6-(2-ethyl-5-fluoro-4-hydroxyphenyl)-1H-indazol-3-yl)-5-isopropyl-4,5,6,7-tetrahydro-3H-imidazo[4,5-c]pyridin-6-yl)methanone], the “JAK1 pKi” value at JAK1 was found to be 10.4. For the same compound, the “JAK2 pKi” value on JAK2 amounted to 10.8. Also, the “JAK3 pKi” value on JAK3 was 10.1. Moreover, the IC50 in assay [1] is 1.58 nM.
